Here are results for 26 compounds from patent EP4585599A1, “NITROGEN-CONTAINING FUSED RING COMPOUND, INTERMEDIATE THEREOF, PREPARATION METHOD THEREFOR AND USE THEREOF” (Hangzhou Synrx Therapeutics Biomedical Technology Co., Ltd., priority 2022, dated 2024).

Like-named read-outs stand apart in the source and are kept apart here.

Assay [1] can be described thus: cells. Particulars: Homo sapiens, DLD-1, 240 h.
The target of assay [2] is T1, helicase domain of the Pol θ protein (Homo sapiens, UniProt O75417).
T1 construct: The helicase domain of the Pol θ protein was purified from insect protein expression system; made in house; host or cells: insect protein expression system
T1 sequence (O75417 102-554 limits assumed): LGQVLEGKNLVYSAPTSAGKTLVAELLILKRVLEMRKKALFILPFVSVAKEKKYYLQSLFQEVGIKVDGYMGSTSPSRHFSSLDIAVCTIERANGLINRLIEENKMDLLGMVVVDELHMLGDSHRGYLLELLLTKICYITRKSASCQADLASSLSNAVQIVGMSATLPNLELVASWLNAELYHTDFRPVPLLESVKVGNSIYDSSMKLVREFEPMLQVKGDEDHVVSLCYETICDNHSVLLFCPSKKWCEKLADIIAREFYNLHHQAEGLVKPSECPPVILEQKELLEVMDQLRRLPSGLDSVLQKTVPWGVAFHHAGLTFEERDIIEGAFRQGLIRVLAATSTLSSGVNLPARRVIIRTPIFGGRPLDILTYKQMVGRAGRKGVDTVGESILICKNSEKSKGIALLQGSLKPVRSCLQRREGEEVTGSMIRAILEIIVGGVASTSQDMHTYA
The experiment in a line: Biochemical Activity Assay (ADP Glo Assay) of Pol θ inhibitor, ATPase activity. Particulars: ssDNA substrate, read-out: Biochemical assay IC50.

Setting [3] is: read-out: Cell viability assay IC50 (nM), CTG assay, CellTiter Glo, read on Day 10, cell line not given.
Where [4] appears, read: read-out: Cell viability assay IC50 (nM), CTG on Day 10, cell line not given (method: DLD1 and DLD1^-/- cells).
The mark [5] stands for this setting: ADP-Glo assay, ATPase activity of Pol θ helicase domain.
Setting [6] is: ADP-Glo, 60 min at room temperature.

Take `COc1cnc(Cl)cc1-c1cc(C)ncc1C(=O)Nc1nc2cnc(N3CCC(O)CC3)cc2s1` [Example 51]: the IC50 in assay [1] (setting [3]) was 85.8 nM; in assay [1] (setting [4]), under 100 nM; in assay [2] (setting [5]), 9.5 nM; in assay [2] (setting [6]) it was under 50 nM.
The like results for `COc1cnc(Cl)cc1-c1cc(C)ncc1C(=O)Nc1nc2cnc(N3CCC(O)CC3)nc2s1` [Example 52] were, in that order, 20.7 nM, under 100 nM, 2.62 nM and under 50 nM.
With `COc1cnc(Cl)c(F)c1-c1cc(C)ncc1C(=O)Nc1nc2ccc(N3CCC(O)CC3)nc2s1` [Example 53], the IC50 in assay [1] (setting [3]) was 9.38 nM; in assay [1] (setting [4]) it was under 100 nM; in assay [2] (setting [5]), 1.96 nM; in assay [2] (setting [6]), under 50 nM.
Regarding `COc1cnc(Cl)cc1-c1cc(C)ncc1C(=O)Nc1nc2ccc(C3=CCC(O)CC3)nc2[nH]1` (stereo not shown) [Example 56, 2'-chloro-N-(5-(4-hydroxycyclohex-1-en-1-yl)-3H-imidazo[4,5-b]pyridin-2-yl)-5'-methox y-6-methyl-[4,4'-bipyridine]-3-carboxamide], the IC50 is 9620 nM in assay [1] (setting [3]), over 1000 nM in assay [1] (setting [4]), 222 nM in assay [2] (setting [5]) and 200 to 500 nM in assay [2] (setting [6]).
Take `COc1cnc(Cl)cc1-c1cc(C)ncc1C(=O)Nc1nc2ncc(N3CCC(NC(C)=O)CC3)cc2s1` [Example 57, N-(6-(4-acetaminopiperidin-1-yl)thiazolo[4,5-b]pyridin-2-yl)-2'-chloro-5'-methoxy-6-me thyl-[4,4'-bipyridine]-3-carboxamide]: the half-inhibitory concentration (IC50) is 126 nM in assay [1] (setting [3]), 100 to 500 nM in assay [1] (setting [4]), 2.51 nM in assay [2] (setting [5]) and under 50 nM in assay [2] (setting [6]).
For `COc1cnc(Cl)cc1-c1cc(C)ncc1C(=O)Nc1nc2ncc(N3CCC(N)CC3)cc2s1` [Example 58], the IC50 in assay [1] (setting [3]) is 3420 nM; in assay [1] (setting [4]), over 1000 nM; in assay [2] (setting [5]), 11 nM; in assay [2] (setting [6]) it was under 50 nM.
The like results for `COc1cnc(Cl)cc1-c1cc(C)ncc1C(=O)Nc1nc2ncc(N3CCC(O)CC3)cc2s1` [Example 59] were, in that order, 82.5 nM, under 100 nM, 3.63 nM and under 50 nM.
The like results for `COc1cnc(Cl)cc1-c1cc(C)ncc1C(=O)Nc1nc2ncc(N3CCC(CO)C3)cc2s1` (stereo not shown) [Example 60] were, in that order, 501 nM, 100 to 500 nM, 9.89 nM and under 50 nM.
With `COc1cnc(Cl)cc1-c1cc(C)ncc1C(=O)Nc1nc2ncc(N3CC4CC(O)CC4C3)cc2s1` (stereo not shown) [Example 61], the IC50 in assay [1] (setting [3]) was 141 nM; in assay [1] (setting [4]) it was 100 to 500 nM; in assay [2] (setting [5]) it was 10.5 nM; in assay [2] (setting [6]), under 50 nM.
For `COc1cnc(Cl)cc1-c1cc(C)ncc1C(=O)Nc1nc2ncc(N3CC4CC3CC4O)cc2s1` (stereo not shown) [Example 62], the IC50 in assay [1] (setting [3]) was 631 nM; in assay [1] (setting [4]), 100 to 500 nM; in assay [2] (setting [5]), 16.9 nM; in assay [2] (setting [6]) it was under 50 nM.
Taken in the same sequence, the figures for `COc1cnc(Cl)cc1-c1cc(C)ncc1C(=O)Nc1nc2ncc(NS(C)(=O)=O)cc2s1` [Example 63] were 1710 nM, over 1000 nM, 5.58 nM and under 50 nM.
With `COc1cnc(Cl)cc1-c1cc(C)ncc1C(=O)Nc1nc2ncc(N3CCCC(O)CC3)cc2s1` (stereo not shown) [Example 64], the IC50 in assay [1] (setting [3]) was 681 nM; in assay [1] (setting [4]), 500 to 1000 nM; in assay [2] (setting [5]) it was 25.4 nM; in assay [2] (setting [6]), under 50 nM.
`COc1cnc(Cl)cc1-c1cc(C)ncc1C(=O)Nc1nc2ncc(N3CCN(S(C)(=O)=O)CC3)cc2s1` [Example 65]: the half-maximal inhibitory concentration (IC50) in assay [1] (setting [3]) is 42.2 nM; in assay [1] (setting [4]) it was under 100 nM; in assay [2] (setting [5]), 2.72 nM; in assay [2] (setting [6]) it was under 50 nM.
With `COc1cnc(Cl)cc1-c1cc(C)ncc1C(=O)Nc1nc2ncc(N3CCC(OC)CC3)cc2s1` [Example 66], the IC50 in assay [1] (setting [3]) was 192 nM; in assay [1] (setting [4]), 100 to 500 nM; in assay [2] (setting [5]), 4.98 nM; in assay [2] (setting [6]), under 50 nM.
The like results for `COc1cnc(Cl)cc1-c1cc(C)ncc1C(=O)Nc1nc2ncc(N3CCC(O)C(C)C3)cc2s1` (stereo not shown) [Example 67] were, in that order, 46.4 nM, under 100 nM, 6.18 nM and under 50 nM.
On to `COc1cnc(Cl)cc1-c1cc(C)ncc1C(=O)Nc1nc2ncc(N3CCC(NS(C)(=O)=O)CC3)cc2s1` [Example 68], for which the IC50 was 1120 nM in assay [1] (setting [3]), over 1000 nM in assay [1] (setting [4]), 1.39 nM in assay [2] (setting [5]) and under 50 nM in assay [2] (setting [6]).
The like results for `COc1cnc(Cl)cc1-c1cc(C)ncc1C(=O)Nc1nc2ncc(NC3CCN(S(C)(=O)=O)CC3)cc2s1` [Example 69] were, in that order, 92.6 nM, under 100 nM, 4.28 nM and under 50 nM.
As for `COc1cnc(Cl)cc1-c1cc(C)ncc1C(=O)Nc1nc2ncc(N3CCCC(O)C3)cc2s1` (stereo not shown) [Example 71], the IC50 in assay [1] (setting [3]) is 142 nM; in assay [1] (setting [4]), 100 to 500 nM; in assay [2] (setting [5]) it was 4.46 nM; in assay [2] (setting [6]), under 50 nM.
The like results for `COc1cnc(Cl)cc1-c1cc(C)ncc1C(=O)Nc1nc2ncc(N3CCC(N(C)C)CC3)cc2s1` [Example 72] were, in that order, 190 nM, 100 to 500 nM, 3.15 nM and under 50 nM.
For `CNC1CCN(c2cnc3nc(NC(=O)c4cnc(C)cc4-c4cc(Cl)ncc4OC)sc3c2)CC1` [Example 73], the IC50 is 209 nM in assay [1] (setting [3]), 100 to 500 nM in assay [1] (setting [4]), 1.67 nM in assay [2] (setting [5]) and under 50 nM in assay [2] (setting [6]).
Taken in the same sequence, the figures for `COc1cnc(Cl)cc1-c1cc(C)ncc1C(=O)Nc1nc2ncc(N3CCC(NC(=O)C4(C)CC4)CC3)cc2s1` [Example 74] were 383 nM, 100 to 500 nM, 6.44 nM and under 50 nM.
The like results for `COc1cnc(Cl)cc1-c1cc(C)ncc1C(=O)Nc1nc2ncc(-c3ccc(P(C)(C)=O)cc3)cc2s1` [Example 75, 2'-chloro-N-(6-(4-(dimethylphosphoryl)phenyl)thiazolo[4,5-b]pyridin-2-yl)-5'-methoxy-6-methyl-[4,4'-bipyridine]-3-carboxamide] were, in that order, 681 nM, 500 to 1000 nM, 2.51 nM and under 50 nM.
As for `COc1cnc(Cl)cc1-c1cc(C)ncc1C(=O)Nc1nc2ncc(-c3ccc(=O)[nH]c3)cc2s1` [Example 76], the IC50 was over 1000 nM in assay [1] (setting [4]), 5.14 nM in assay [2] (setting [5]) and under 50 nM in assay [2] (setting [6]).
As for `COc1cnc(Cl)cc1-c1cc(C)ncc1C(=O)Nc1nc2ncc(C3=CCC4(CC3)CC(O)C4)cc2s1` (stereo not shown) [Example 77], the half-inhibitory concentration (IC50) in assay [1] (setting [3]) is 7.36 nM; in assay [1] (setting [4]) it was under 100 nM; in assay [2] (setting [5]), 3.94 nM; in assay [2] (setting [6]), under 50 nM.
Turning to `COc1cnc(Cl)cc1-c1cc(C)ncc1C(=O)Nc1nc2ncc(C3=CCC4(CC3)COC4)cc2s1` [Example 78], the IC50 is 8.21 nM in assay [1] (setting [3]), under 100 nM in assay [1] (setting [4]), 2.89 nM in assay [2] (setting [5]) and under 50 nM in assay [2] (setting [6]).
Regarding `COc1cnc(Cl)cc1-c1cc(C)ncc1C(=O)Nc1nc2ncc(C3=CC(O)CC3)cc2s1` (stereo not shown) [Example 79], the half-maximal inhibitory concentration (IC50) was 92.6 nM in assay [1] (setting [3]), under 100 nM in assay [1] (setting [4]), 3.35 nM in assay [2] (setting [5]) and under 50 nM in assay [2] (setting [6]).
